Nine molecules from PMC6539525, “Design, Synthesis, and Mechanism of Dihydroartemisinin–Coumarin Hybrids as Potential Anti-Neuroinflammatory Agents” (Molecules, 2019) can be followed below.

Where two headings read alike, the source gives them in different places.

The subject of one data set is A549 cells. Nature of the data set: MTT cytotoxicity in A549 cells. The format is cell-based. The following applies: Homo sapiens. As for the experimental part:
(§1) As the anti-neuroinflammatory agents for cancer patients, all newly synthesized compounds were evaluated in vitro for antitumor activity against human breast cancer cell line MDA-MB-231, colorectal cancer cells HT-29 and HCT-116, and lung cancer cell line A549 by using the standard MTT method, respectively. Doxorubicin (DOX) and DHA were used as the reference standard. Additionally, owing to the rapid proliferation, the tumor cells actually was always in hypoxia condition. Therefore, the in vitro cytotoxicity was evaluated in two different conditions (hypoxia and normoxia).
(§2) After recovery, the cells were cultured in 96-well plates for 24 h at 37 °C in a humidified atmosphere with 95% air and 5% CO2. After treated with different tested compounds, the hypoxia groups were placed in a sealed hypoxia incubator chamber (Stemcell Technologies, Inc., Vancouver, BC, Canada) filled with 5% CO2 and 95% N2 for 24 h, and then transferred to the incubator chamber filled with air for 72 h. On the contrary, the normoxia groups were cultured under air condition for 96h.
(§3) Cancer cells HT-29 (Human Colorectal Adenocarcinoma cell line), MDA-MB-231 (Human Breast Cancer cell line), HCT-116 (Human Colorectal Carcinoma cell line), and A549 (Human Lung Adenocarcinomic cell line) were from ATCC.
(§4) When the adherent cells reached 80% confluence, the culture medium was discarded. The cells were digested by trypsin and collected after centrifugation. The fresh culture medium was gently blown into it to form single-cell suspension. Cell suspension will be diluted to 1.5–3 × 10^4 cells/mL. Each hole of 96-well plates was added 100 μL cell suspension and incubated for 24 h (5% CO2; 37 °C). Then the holes were added different concentrations of tested compounds. The early screening concentration is set to 100 μM, 50 μM, 25 μM, 12.5 μM, and 6.25 μM. Three replicates were made for each concentration of the tested compounds. After the cells were grown for 96h, 20 μL MTT (5 mg/mL) was added to each well and incubated for 4 h. The medium was discarded and each well was added 100 μL DMSO to dissolve the formazan blue. Absorbance was measured at 570 nm with a microplate reader (Synergy-HT, BioTek Instruments, Winooski, VT, USA).
(§5) Hypoxia condition: The cells were treated with different concentration of tested compounds, placed in hypoxia chamber (Catalog Number 27310, Stemcell Technologies, Inc., Vancouver, BC, Canada), and incubated for 24 h ([…]; 37 °C). Then the cells were placed in normoxia condition (5% CO2; 37 °C) and incubated for 72 h.

The test system of a further data set is HCT-116 cells. Briefly: MTT cytotoxicity in HCT-116 cells. The conditions noted are these: Homo sapiens. The format is cell-based. As for the experimental part: as §1, §2, §3, §4, §5
A further data set deals with MDA-MB-231 cells. Nature of the data set: MTT cytotoxicity in MDA-MB-231 cells. It is filed as cell-based. The conditions noted are these: Homo sapiens. As to the method: as §1, §2, §3, §4, §5
The nature of data set [1]: MTT cytotoxicity in N9 cells. It is filed as cell-based, murine. The conditions noted are these: mouse, N9 microglial cells, cytotoxic activity. As for the experimental part:
(§6) The anti-neuroinflammatory activity of DCH was evaluated and then the representative compounds were selected for the further study. […] In addition, in order to exclude the death influence, MTT-IC20 of all the compounds were measured. […] The exact reason was still unclear, but we supposed that it might be related to the homeostasis of cells. The tumor cells actually were always in hypoxia condition, in which DCH could promote the cytotoxic activity against tumor cells. In brief, DCH could reduce the release of NO caused by LPS-induced microglial cells.
as §4
(§7) N9 cells, which were in the logarithmic phase, were incubated for 24 h by adherent culture. Subsequently, the medium was changed to new one without serum. The cells were treated with different concentration of tested compounds. After specific time in the LPS condition, the supernatants were collected and analyzed.

Data set [2] deals with NO release of LPS-induced microglial N9 cells. Briefly: Inhibition of NO release in LPS-induced N9 cells (Griess). It is filed as cell-based, murine. The following applies: Mus musculus, 1 μg/mL LPS for 48 h, NO level in medium. As for the experimental part: as §6, §7
The nitrite levels in medium were determined by Griess reaction. The absorbance was measured at 540 nm using a microplate reader.

In a further data set the test system is HT-29 cells. Briefly: MTT cytotoxicity in HT-29 cells. The format is cell-based, Human. The conditions noted are these: Homo sapiens, MTT. As to the method:
as §1
After recovery, the cells were cultured in 96-well plates for 24 h at 37 °C in a humidified atmosphere with 95% air and 5% CO2. After treated with different tested compounds, the hypoxia groups were placed in a sealed hypoxia incubator chamber (Stemcell Technologies, Inc., Vancouver, BC, Canada) filled with 5% CO2 and 95% N2 for 24 h, and then transferred to the incubator chamber filled with air for 72 h. […]
as §3
as §4, with “After the cells were grown for 96h, 20 μL MTT (5 mg/mL) was added to each well and incubated for 4 h.” left out, “USA). […]” for “USA).”

Setting [3] is: A549, hypoxia 24 h then normoxia 72 h, read-out: IC50 A549 Hypoxia.
The mark [4] stands for this setting: A549, normoxia 96 h, read-out: IC50 A549 Normoxia.
The mark [5] stands for this setting: HCT-116, hypoxia 24 h then normoxia 72 h, read-out: IC50 HCT-116 Hypoxia.
Setting [6] is: HCT-116, normoxia 96 h, read-out: IC50 HCT-116 Normoxia.
Setting [7] is: MDA-MB-231, hypoxia 24 h then normoxia 72 h, read-out: IC50 MDA-MB-231 Hypoxia.
Setting [8] is: MDA-MB-231, normoxia 96 h, read-out: IC50 MDA-MB-231 Normoxia.
[9] abbreviates: HT-29, hypoxia 24 h then normoxia 72 h, read-out: IC50 HT-29 Hypoxia.
Setting [10] is: HT-29, normoxia 96 h, read-out: IC50 HT-29 Normoxia.

As to `C[C@H]1[C@@H](OCc2cn(Cc3cc(=O)oc4cc(O)ccc34)nn2)O[C@@H]2O[C@@]3(C)CC[C@H]4[C@H](C)CC[C@@H]1[C@@]24OO3` [3f, 7-hydroxy-4-((4-((10S)-dihydroartemisininoxy)methyl-1H-1,2,3-triazol-1-yl)-methyl)-2H-1-chromen-2-one], the 50% inhibitory concentration (IC50) was 98 µM with A549 cells (setting [3]); more than 100 µM in the data set with A549 cells (setting [4]); 67.7 µM in the data set with HCT-116 cells (setting [5]); more than 100 µM in the data set with HCT-116 cells (setting [6]); 63.1 µM in the data set with MDA-MB-231 cells (setting [7]); more than 100 µM with MDA-MB-231 cells (setting [8]). Further, the IC50 in data set [2] came out at 0.37 µM; with HT-29 cells (setting [9]), 15.5 µM; in the data set on HT-29 cells (setting [10]) it was 37.8 µM. The IC20 in data set [1] was more than 10 µM.

Consider `Cc1cc(C)c2c(Cn3cc(CO[C@H]4O[C@@H]5O[C@@]6(C)CC[C@H]7[C@H](C)CC[C@@H]([C@H]4C)[C@@]57OO6)nn3)cc(=O)oc2c1` [3g, 5,7-dimethyl-4-((4-((10S)-dihydroartemisininoxy)methyl-1H-1,2,3-triazol-1-yl)-methyl)-2H-1-chromen-2-one], for which the IC50 in the data set on A549 cells (setting [3]), in the data set with A549 cells (setting [4]), with HCT-116 cells (setting [5]), in the data set on HCT-116 cells (setting [6]), in the data set on MDA-MB-231 cells (setting [7]) and with MDA-MB-231 cells (setting [8]) was more than 100 µM each time. Also, the IC50 in data set [2] was more than 10 µM; in the data set with HT-29 cells (setting [9]) it was 15.9 µM; in the data set on HT-29 cells (setting [10]), 23.9 µM. In addition, the IC20 in data set [1] was more than 10 µM.

Consider `Cc1ccc2c(Cn3cc(CO[C@H]4O[C@@H]5O[C@@]6(C)CC[C@H]7[C@H](C)CC[C@@H]([C@H]4C)[C@@]57OO6)nn3)cc(=O)oc2c1` [3h, 7-methyl-4-((4-((10S)-dihydroartemisininoxy)methyl-1H-1,2,3-triazol-1-yl)-methyl)-2H-1-chromen-2-one], for which the IC50 with A549 cells (setting [3]), in the data set with A549 cells (setting [4]), in the data set with HCT-116 cells (setting [5]), in the data set on HCT-116 cells (setting [6]), in the data set with MDA-MB-231 cells (setting [7]) and in the data set on MDA-MB-231 cells (setting [8]) was more than 100 µM each time. Besides, the IC50 is more than 10 µM in data set [2], 32 µM in the data set with HT-29 cells (setting [9]) and more than 100 µM with HT-29 cells (setting [10]). Further, in data set [1], the concentration for an effect of 20% (IC20) is more than 10 µM.

Regarding `Cc1ccc2oc(=O)cc(Cn3cc(CO[C@H]4O[C@@H]5O[C@@]6(C)CC[C@H]7[C@H](C)CC[C@@H]([C@H]4C)[C@@]57OO6)nn3)c2c1` [3i, 6-methyl-4-((4-((10S)-dihydroartemisininoxy)methyl-1H-1,2,3-triazol-1-yl)-methyl)-2H-1-chromen-2-one], the IC50 was 62.3 µM in the data set on A549 cells (setting [3]); more than 100 µM with A549 cells (setting [4]); more than 100 µM with HCT-116 cells (setting [5]); 65 µM with HCT-116 cells (setting [6]); 22.8 µM in the data set on MDA-MB-231 cells (setting [7]); more than 100 µM in the data set on MDA-MB-231 cells (setting [8]). The half-inhibitory concentration (IC50) is 0.72 µM in data set [2], 8.57 µM in the data set with HT-29 cells (setting [9]) and 16.4 µM in the data set on HT-29 cells (setting [10]). For the same molecule, the 20% effect concentration (IC20) in data set [1] was more than 10 µM.

Take `C[C@H]1[C@@H](OCCc2cn(Cc3cc(=O)oc4cc(O)ccc34)nn2)O[C@@H]2O[C@@]3(C)CC[C@H]4[C@H](C)CC[C@@H]1[C@@]24OO3` [4f, 7-hydroxy-4-((4-(2-((10S)-dihydroartemisininoxy)ethyl)-1H-1,2,3-triazol-1-yl)-methyl)-2H-1-chromen-2-one]: the IC50 is more than 100 µM in the data set with A549 cells (setting [3]); more than 100 µM with A549 cells (setting [4]); more than 100 µM in the data set with HCT-116 cells (setting [5]); more than 100 µM in the data set on HCT-116 cells (setting [6]); 78.8 µM in the data set on MDA-MB-231 cells (setting [7]); more than 100 µM with MDA-MB-231 cells (setting [8]). In addition, the results for the IC50 (in data set [2]; in the data set with HT-29 cells (setting [9]); in the data set with HT-29 cells (setting [10])) were 2.03 µM, 11.3 µM and 32.3 µM, respectively. Besides, the 20% effect concentration (IC20) in data set [1] is more than 10 µM.

Consider `Cc1cc(C)c2c(Cn3cc(CCO[C@H]4O[C@@H]5O[C@@]6(C)CC[C@H]7[C@H](C)CC[C@@H]([C@H]4C)[C@@]57OO6)nn3)cc(=O)oc2c1` [4g, 5,7-dimethyl-4-((4-(2-((10S)-dihydroartemisininoxy)ethyl)-1H-1,2,3-triazol-1-yl)-methyl)-2H-1-chromen-2-one], for which the IC50 with A549 cells (setting [3]) is more than 100 µM; with A549 cells (setting [4]), more than 100 µM; in the data set with HCT-116 cells (setting [5]), 25.7 µM; in the data set on HCT-116 cells (setting [6]) it was 34.5 µM; with MDA-MB-231 cells (setting [7]), 22.7 µM; in the data set on MDA-MB-231 cells (setting [8]), more than 100 µM. Besides, the IC50 in data set [2] was determined as 1.36 µM; in the data set with HT-29 cells (setting [9]), 9.33 µM; with HT-29 cells (setting [10]), 13.8 µM. Further, the IC20 in data set [1] is more than 10 µM.

Turning to `Cc1ccc2c(Cn3cc(CCO[C@H]4O[C@@H]5O[C@@]6(C)CC[C@H]7[C@H](C)CC[C@@H]([C@H]4C)[C@@]57OO6)nn3)cc(=O)oc2c1` [4h, 7-methyl-4-((4-(2-((10S)-dihydroartemisininoxy)ethyl)-1H-1,2,3-triazol-1-yl)-methyl)-2H-1-chromen-2-one], the IC50 in the data set with A549 cells (setting [3]), with A549 cells (setting [4]), with HCT-116 cells (setting [5]), in the data set with HCT-116 cells (setting [6]), in the data set with MDA-MB-231 cells (setting [7]) and with MDA-MB-231 cells (setting [8]) was more than 100 µM in each case. The IC50 is 5.69 µM in data set [2], 56.4 µM in the data set on HT-29 cells (setting [9]) and more than 100 µM with HT-29 cells (setting [10]). In data set [1], the IC20 is more than 10 µM.

As for `COc1cccc2c1C(=O)c1c(O)c3c(c(O)c1C2=O)C[C@@](O)(C(=O)CO)C[C@@H]3O[C@H]1C[C@H](N)[C@H](O)[C@H](C)O1` [DOX, Doxorubicin, reference compound], the concentration for half-maximal inhibition (IC50) in the data set with A549 cells (setting [3]) was more than 2 µM; with A549 cells (setting [4]), more than 2 µM; with HCT-116 cells (setting [5]), more than 2 µM; in the data set on HCT-116 cells (setting [6]), 1.29 µM; in the data set on MDA-MB-231 cells (setting [7]), 0.69 µM; in the data set on MDA-MB-231 cells (setting [8]) it was 1.37 µM. In addition, the half-inhibitory concentration (IC50) in the data set with HT-29 cells (setting [9]) was less than 0.1 µM; with HT-29 cells (setting [10]), 0.11 µM.

Regarding `CN(C)c1ccc(O)c2c1C[C@H]1C[C@H]3[C@H](N(C)C)C(O)=C(C(N)=O)C(=O)[C@@]3(O)C(O)=C1C2=O` [Minocycline, reference compound], the 20% effect concentration (IC20) in data set [1] is more than 10 µM. Further, the IC50 in data set [2] was more than 10 µM.
